What is called IC50 is the point on the concentration scale where inhibition reaches its midpoint. For orientation: MIC means the lowest concentration found to suppress growth.

The target of test [1] is E. coli Enopyruvyl-UPD-N-acetylglucosamine reductase, Mur B (Escherichia coli, UniProt P08373). The test can be described thus: biochemical. As to conditions: (E) E. coli enzyme; read-out: MurB IC50 (converted).
Test [2] deals with T1, S. aureus Enopyruvyl-UPD-N-acetylglucosamine reductase, Mur B (Staphylococcus aureus, UniProt P61431).
T1 sequence (P61431 1-307): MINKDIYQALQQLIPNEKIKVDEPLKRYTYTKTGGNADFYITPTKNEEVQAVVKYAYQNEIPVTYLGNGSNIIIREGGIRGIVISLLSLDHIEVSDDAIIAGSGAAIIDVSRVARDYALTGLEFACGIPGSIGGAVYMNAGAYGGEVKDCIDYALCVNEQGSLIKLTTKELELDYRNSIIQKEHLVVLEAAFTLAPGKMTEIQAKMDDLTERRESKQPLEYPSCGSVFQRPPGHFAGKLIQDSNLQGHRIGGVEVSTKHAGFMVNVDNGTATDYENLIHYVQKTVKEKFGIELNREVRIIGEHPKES
The test can be described thus: biochemical.

For test [3], the target named is T2, S. aureus Uridine-diphosphate-N-acetvimuramoyl: L-alanine lipase, MurC (Staphylococcus aureus, UniProt Q2FXJ0).
T2 sequence (Q2FXJ0 1-437): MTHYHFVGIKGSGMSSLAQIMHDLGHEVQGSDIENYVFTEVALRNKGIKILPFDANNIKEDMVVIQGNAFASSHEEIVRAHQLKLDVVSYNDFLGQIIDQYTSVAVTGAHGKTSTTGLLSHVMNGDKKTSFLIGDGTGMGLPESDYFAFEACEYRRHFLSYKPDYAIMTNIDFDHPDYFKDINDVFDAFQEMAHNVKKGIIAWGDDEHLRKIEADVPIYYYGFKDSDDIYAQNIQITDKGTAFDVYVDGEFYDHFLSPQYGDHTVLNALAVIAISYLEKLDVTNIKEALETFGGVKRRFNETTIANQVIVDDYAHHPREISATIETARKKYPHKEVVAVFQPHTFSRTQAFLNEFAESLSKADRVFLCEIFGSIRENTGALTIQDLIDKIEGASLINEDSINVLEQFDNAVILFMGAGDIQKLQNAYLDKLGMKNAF
As to the kind of experiment: biochemical. As to conditions: (S) S. aureus enzyme; read-out: MurC IC50 (converted). Summed up: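 MurC assay: enzyme (E. coli 100 μg/mL, S. aureus 70 μg/mL stock) with L-Ala and test compound, pre-incubated 10 min at 23 °C, then UDP-MurNac added, 10 min at 37 °C. Phosphate released detected by malachite green–molybdate at 660 nm; IC50 by linear regression.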

For test [4], the system named is enterococci. As to the kind of experiment: Minimum inhibitory concentration, microdilution broth method, enterococci. The format is cell-based. As to conditions: Enterococcus faecalis, Mueller-Hinton broth, 18-22 hours at 35° C. Summed up: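 Organisms, including methicillin-, penicillin- and/or vancomycin-resistant clinical isolates, tested by NCCLS M7-A5 microdilution. Medium: Mueller-Hinton broth for staphylococci and enterococci, supplemented with 5% lysed horse blood for streptococci.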
Background: In broth dilution the organism is exposed to a series of concentrations in liquid medium.

The mark [5] stands for this setting: (S) S. aureus enzyme, read-out: MurB IC50 (converted).
The mark [6] stands for this setting: E. faecalis GC 2242, read-out: MIC E. faecalis GC 2242.
Setting [7] is: E. faecalis GC 4555, read-out: MIC E. faecalis GC 4555.

Values after ≈ are worked out from the molar mass of the structure shown. Where two headings read alike, the source gives them in different places.

E. coli Enopyruvyl-UPD-N-acetylglucosamine reductase, Mur B, sequence (P08373 whole entry): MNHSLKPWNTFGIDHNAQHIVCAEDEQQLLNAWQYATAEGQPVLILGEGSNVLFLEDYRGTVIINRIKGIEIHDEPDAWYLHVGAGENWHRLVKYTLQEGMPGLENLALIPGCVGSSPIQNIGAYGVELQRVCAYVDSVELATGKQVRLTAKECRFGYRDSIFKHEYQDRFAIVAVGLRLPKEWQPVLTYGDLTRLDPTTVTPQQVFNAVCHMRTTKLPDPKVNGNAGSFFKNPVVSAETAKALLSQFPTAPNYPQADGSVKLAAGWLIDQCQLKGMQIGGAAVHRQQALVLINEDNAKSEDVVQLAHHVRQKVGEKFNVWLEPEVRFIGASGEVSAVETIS

Consider `O=C1O/C(=C\c2ccc(-c3ccccc3)cc2)C(O)=C1c1csc2ccccc12` [Example 143], for which the figures for the IC50 in test [1], in test [2] (setting [5]) and in test [3] were 17.7 µM, 10.1 µM and 12.6 µM, respectively. In addition, the MIC in test [4] (setting [6]) came out at 4 µg/mL (≈ 10.1 µM); in test [4] (setting [7]), 32 µg/mL (≈ 80.7 µM).
For `O=C1O/C(=C\c2ccc(-c3ccccc3)cc2)C(O)=C1c1cccs1` [Example 144], the half-maximal inhibitory concentration (IC50) in test [1] was 57.7 µM; in test [2] (setting [5]) it was 28.9 µM; in test [3] it was 28.9 µM. The values for the minimal inhibitory concentration (MIC) in test [4] (setting [6]) and in test [4] (setting [7]) were 32 µg/mL (≈ 92.4 µM) and greater than 128 µg/mL, respectively.
With `O=C1O/C(=C\c2cccc3ccccc23)C(O)=C1c1ccc(-c2ccccc2)cc1` [R=H, R1=4-biphenyl, R2=1-naphthyl], the IC50 in test [1] was 12.8 µM; in test [2] it was 25.6 µM; in test [3] it was 48.7 µM. Also, the minimal inhibitory concentration (MIC) worked out at 4 µg/mL (≈ 10.2 µM) in test [4] (setting [6]) and 16 µg/mL (≈ 41 µM) in test [4] (setting [7]).

The values are drawn from patent publication US7495027B2, “3-aryl-4-hydroxyfuranone compounds and the human and animal health use thereof” (Wyeth, priority 2003, dated 2009).
